The results in this text go back to patent US8404679B2, “Pyrrolidine derivatives as NK2 receptor antagonists” (Hoffmann-La Roche Inc., priority 2008, dated 2013).

This test deals with T1, human NK2 receptor (Homo sapiens, UniProt P21452).
T1 construct: purchased Perkin Elmer biosignal Inc. 6110510
T1 sequence (P21452 1-398): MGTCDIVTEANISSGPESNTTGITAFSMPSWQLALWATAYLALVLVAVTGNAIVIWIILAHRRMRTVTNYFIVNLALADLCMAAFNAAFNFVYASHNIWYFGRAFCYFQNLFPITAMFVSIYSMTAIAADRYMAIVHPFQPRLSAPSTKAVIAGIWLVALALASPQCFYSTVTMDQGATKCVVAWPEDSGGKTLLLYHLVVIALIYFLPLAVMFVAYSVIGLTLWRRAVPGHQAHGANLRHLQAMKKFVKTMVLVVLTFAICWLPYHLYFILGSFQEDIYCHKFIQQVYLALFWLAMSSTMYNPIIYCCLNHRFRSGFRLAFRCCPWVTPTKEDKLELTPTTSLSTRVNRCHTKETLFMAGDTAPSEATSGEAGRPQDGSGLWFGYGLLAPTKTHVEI
The experiment in a line: [3H]SR48968 competition binding assay. The conditions noted are these: [3H]SR48968 displacement, membranes of CHO cells stably expressing recombinant human NK2 receptor; Ki from IC50 by Cheng-Prussoff. As to the method:
[^3H]SR48968 Competition Binding Assay
hNK2 receptor binding experiment were performed using [^3H]SR48968 (Catalog No. TRK398, specific activity: 27.0 Ci/mmol, Amersham, GE Healthcare UK limited, Buckinghamshire, UK) and membrane isolated from CHO cells stably expressing recombinant human NK2 receptor (product No. 6110510, Perkin Elmer biosignal Inc., Shelton, Conn., USA). After thawing, the membrane homogenates were centrifuged at 48,000×g for 10 min at 4° C., the pellets were resuspended in the 50 mM Tris-HCl, 3 mM MnCl2, 4 μg/mL Chymostatin, 0.04% BSA binding buffer at pH 7.4 to a final assay concentration of 6.5 μg protein/well. For inhibition experiments, membranes were incubated with [^3H]SR48968 at a concentration equal to KD value of radioligand and 10 concentrations of the inhibitory compound (0.0003-10 μM) (in a total reaction volume of 500 μl) for 75 min at room temperature (RT). At the end of the incubation, membranes were filtered onto unitfilter (96-well white microplate with bonded GF/C filter preincubated 1 h in 0.3% polyethylenimine, Packard BioScience, Meriden, Conn.) with a Filtermate 196 harvester (Packard BioScience) and washed 4 times with ice-cold 50 mM Tris-HCl, pH 7.4 buffer. Nonspecific binding was measured in the presence of 10 μM 1-{2-[(R)-3-(3,4-dichloro-phenyl)-1-(3,4,5-trimethoxy-benzoyl)-pyrrolidin-3-yl]-ethyl}-4-phenyl-piperidine-4-carboxylic acid amide. The radioactivity on the filter was counted (5 min) on a Packard Top-count microplate scintillation counter with quenching correction after addition of 45 μl of microscint 40 (Canberra Packard S. A., Zürich, Switzerland) and shaking for 1 h. Inhibition curves were fitted according to the Hill equation: y=100/(1+(x/IC50)^nH), where nH=slope factor using Excel-fit 4 software (Microsoft). IC50 values were derived from the inhibition curve and the affinity constant (Ki) values were calculated using the Cheng-Prussoff equation Ki=IC50/(1+[L]/KD) where [L] was the concentration of radioligand and KD was its dissociation constant at the receptor, derived from the saturation isotherm.

pKi: −log10 of the molar value.

As for `Cc1cc(C(=O)N(C)[C@@H]2CN(C(=O)N3CCN(S(C)(=O)=O)CC3)C[C@H]2c2ccc(Cl)c(Cl)c2)ccc1F` (racemic) [Example 25, rac-N-[(3S,4R)-4-(3,4-Dichloro-phenyl)-1-(4-methanesulfonyl-piperazine-1-carbonyl)-pyrrolidin-3-yl]-4-fluoro-3,N-dimethyl-benzamide], the negative logarithm of the Ki (pKi) was 8.22.
`COc1ccc(C(=O)N(C)[C@@H]2CN(C(=O)N3CCN(S(C)(=O)=O)CC3)C[C@H]2c2ccc(Cl)c(Cl)c2)cc1F` (racemic) [Example 26, rac-N-[(3S,4R)-4-(3,4-Dichloro-phenyl)-1-(4-methanesulfonyl-piperazine-1-carbonyl)-pyrrolidin-3-yl]-3-fluoro-4-methoxy-N-methyl-benzamide]: the negative-log Ki (pKi) is 8.02.
Turning to `CN(C(=O)c1ccc(F)c(F)c1)[C@@H]1CN(C(=O)N2CCN(S(C)(=O)=O)CC2)C[C@H]1c1ccc(Cl)c(Cl)c1` (racemic) [Example 27, rac-N-[(3S,4R)-4-(3,4-Dichloro-phenyl)-1-(4-methanesulfonyl-piperazine-1-carbonyl)-pyrrolidin-3-yl]-3,4-difluoro-N-methyl-benzamide], the pKi is 7.79.
In the case of `CN(C(=O)c1ccc2c(c1)OC(F)(F)O2)[C@@H]1CN(C(=O)N2CCN(S(C)(=O)=O)CC2)C[C@H]1c1ccc(Cl)c(Cl)c1` (racemic) [Example 28, rac-2,2-Difluoro-benzo[1,3]dioxole-5-carboxylic acid [(3S,4R)-4-(3,4-dichloro-phenyl)-1-(4-methanesulfonyl-piperazine-1-carbonyl)-pyrrolidin-3-yl]-methyl-amide], the pKi was 8.69.
In the case of `CN(C(=O)c1ccc(-n2cccc2)cc1)[C@@H]1CN(C(=O)N2CCN(S(C)(=O)=O)CC2)C[C@H]1c1ccc(Cl)c(Cl)c1` (racemic) [Example 30, rac-N-[(3S,4R)-4-(3,4-Dichloro-phenyl)-1-(4-methanesulfonyl-piperazine-1-carbonyl)-pyrrolidin-3-yl]-N-methyl-4-pyrrol-1-yl-benzamide] it was 8.34; in that of `CN(C(=O)c1ccc2c(c1)CCO2)[C@@H]1CN(C(=O)N2CCN(S(C)(=O)=O)CC2)C[C@H]1c1ccc(Cl)c(Cl)c1` (racemic) [Example 31, rac-2,3-Dihydro-benzofuran-5-carboxylic acid [(3S,4R)-4-(3,4-dichloro-phenyl)-1-(4-methanesulfonyl-piperazine-1-carbonyl)-pyrrolidin-3-yl]-methyl-amide], 7.83.
With `CN(C(=O)c1ccc(F)c(Cl)c1)[C@@H]1CN(C(=O)N2CCN(S(C)(=O)=O)CC2)C[C@H]1c1ccc(Cl)c(Cl)c1` (racemic) [Example 32, rac-3-Chloro-N-[(3S,4R)-4-(3,4-dichloro-phenyl)-1-(4-methanesulfonyl-piperazine-1-carbonyl)-pyrrolidin-3-yl]-4-fluoro-N-methyl-benzamide], the pKi was 8.34.
As to `COc1ccc(C(=O)N(C)[C@@H]2CN(C(=O)N3CCN(S(C)(=O)=O)CC3)C[C@H]2c2ccc(Cl)c(Cl)c2)cc1Cl` (racemic) [Example 33, rac-3-Chloro-N-[(3S,4R)-4-(3,4-dichloro-phenyl)-1-(4-methanesulfonyl-piperazine-1-carbonyl)-pyrrolidin-3-yl]-4-methoxy-N-methyl-benzamide], the negative-log Ki (pKi) is 8.07.
On to `CN(C(=O)c1ccc2nccnc2c1)[C@@H]1CN(C(=O)N2CCN(S(C)(=O)=O)CC2)C[C@H]1c1ccc(Cl)c(Cl)c1` (racemic) [Example 34, rac-Quinoxaline-6-carboxylic acid [(3S,4R)-4-(3,4-dichloro-phenyl)-1-(4-methanesulfonyl-piperazine-1-carbonyl)-pyrrolidin-3-yl]-methyl-amide], for which the pKi was 7.11.
On to `CC(C#N)c1cccc(C(=O)N(C)[C@@H]2CN(C(=O)N3CCN(S(C)(=O)=O)CC3)C[C@H]2c2ccc(Cl)c(Cl)c2)c1` (mixture of isomers) [Example 35, rac-3-(Cyano-methyl-methyl)-N-[(3S,4R)-4-(3,4-dichloro-phenyl)-1-(4-methanesulfonyl-piperazine-1-carbonyl)-pyrrolidin-3-yl]-N-methyl-benzamide], for which the negative logarithm of the Ki (pKi) is 7.55.
With `CN(C(=O)c1ccc(F)c(C(F)(F)F)c1)[C@@H]1CN(C(=O)N2CCN(S(C)(=O)=O)CC2)C[C@H]1c1ccc(Cl)c(Cl)c1` (racemic) [Example 36, rac-N-[(3S,4R)-4-(3,4-Dichloro-phenyl)-1-(4-methanesulfonyl-piperazine-1-carbonyl)-pyrrolidin-3-yl]-4-fluoro-N-methyl-3-trifluoromethyl-benzamide], the pKi was 8.44.
With `COc1ccc(C(=O)N(C)[C@@H]2CN(C(=O)N3CCN(S(C)(=O)=O)CC3)C[C@H]2c2ccc(Cl)c(Cl)c2)cc1` (racemic) [Example 37, rac-N-[(3S,4R)-4-(3,4-Dichloro-phenyl)-1-(4-methanesulfonyl-piperazine-1-carbonyl)-pyrrolidin-3-yl]-4-methoxy-N-methyl-benzamide], the pKi is 8.05.
As for `CN(C(=O)c1cc(C(F)(F)F)ccc1F)[C@@H]1CN(C(=O)N2CCN(S(C)(=O)=O)CC2)C[C@H]1c1ccc(Cl)c(Cl)c1` (racemic) [Example 38, rac-N-[(3S,4R)-4-(3,4-Dichloro-phenyl)-1-(4-methanesulfonyl-piperazine-1-carbonyl)-pyrrolidin-3-yl]-2-fluoro-N-methyl-5-trifluoromethyl-benzamide], the figure is 8.02.
In the case of `CCN(C(=O)c1ccc(OC)c(C(F)(F)F)c1)[C@@H]1CN(C(=O)N2CCN(S(C)(=O)=O)CC2)C[C@H]1c1ccc(Cl)c(Cl)c1` (racemic) [Example 39, rac-N-[(3S,4R)-4-(3,4-Dichloro-phenyl)-1-(4-methanesulfonyl-piperazine-1-carbonyl)-pyrrolidin-3-yl]-N-ethyl-4-methoxy-3-trifluoromethyl-benzamide] it was 7.17; in that of `COc1ccc(C(=O)N(C)[C@@H]2CN(C(=O)c3ccc(C#N)cc3)C[C@H]2c2ccc(Cl)c(Cl)c2)cc1C(F)(F)F` (racemic) [Example 41, rac-N-[(3S,4R)-1-(4-Cyano-benzoyl)-4-(3,4-dichloro-phenyl)-pyrrolidin-3-yl]-4-methoxy-N-methyl-3-trifluoromethyl-benzamide], 8.84.
In the case of `COc1ccc(C(=O)N2C[C@@H](N(C)C(=O)c3ccc(OC)c(C(F)(F)F)c3)[C@H](c3ccc(Cl)c(Cl)c3)C2)cc1` (racemic) [Example 44, rac-N-[(3S,4R)-4-(3,4-Dichloro-phenyl)-1-(4-methoxy-benzoyl)-pyrrolidin-3-yl]-4-methoxy-N-methyl-3-trifluoromethyl-benzamide], the pKi is 8.37.
As for `COc1ccc(C(=O)N(C)[C@@H]2CN(C(=O)c3ccc(N(C)C)cc3)C[C@H]2c2ccc(Cl)c(Cl)c2)cc1C(F)(F)F` (racemic) [Example 45, rac-N-[(3S,4R)-4-(3,4-Dichloro-phenyl)-1-(4-dimethylamino-benzoyl)-pyrrolidin-3-yl]-4-methoxy-N-methyl-3-trifluoromethyl-benzamide], the figure is 8.53; as for `COc1ccc(C(=O)N(C)[C@@H]2CN(C(=O)c3ccc(F)cc3)C[C@H]2c2ccc(Cl)c(Cl)c2)cc1C(F)(F)F` (racemic) [Example 46, rac-N-[(3S,4R)-4-(3,4-Dichloro-phenyl)-1-(4-fluoro-benzoyl)-pyrrolidin-3-yl]-4-methoxy-N-methyl-3-trifluoromethyl-benzamide], 8.49; as for `COc1ccc(C(=O)N(C)[C@@H]2CN(C(=O)c3cccc(C#N)c3)C[C@H]2c2ccc(Cl)c(Cl)c2)cc1C(F)(F)F` (racemic) [Example 47, rac-N-[(3S,4R)-1-(3-Cyano-benzoyl)-4-(3,4-dichloro-phenyl)-pyrrolidin-3-yl]-4-methoxy-N-methyl-3-trifluoromethyl-benzamide], 8.44.
As to `COc1ccc(C(=O)N(C)[C@@H]2CN(C(=O)c3ccc4occc4c3)C[C@H]2c2ccc(Cl)c(Cl)c2)cc1C(F)(F)F` (racemic) [Example 48, rac-N-[(3S,4R)-1-(Benzofuran-5-carbonyl)-4-(3,4-dichloro-phenyl)-pyrrolidin-3-yl]-4-methoxy-N-methyl-3-trifluoromethyl-benzamide], the negative-log Ki (pKi) is 8.27.

As usually defined, the pKi is the negative decadic logarithm of the Ki, by convention in mol/L.
